Laboratory results: ChEMBL document CHEMBL4400552, “Design, synthesis and biological evaluation of novel human monoamine oxidase B inhibitors based on a fragment in an X-ray crystal structure” (Bioorg Med Chem Lett, 2019)

What was measured:
[1] = biological target: T1, Amine oxidase [flavin-containing] B (Homo sapiens, UniProt P27338); experiment: Inhibition of human recombinant MAO-B expressed in insect cells at 1 uM using p-tyramine as substrate preincubated for 30 mins followed by substrate addition measured for 15 mins by resorufin dye-based fluorescence assay relative to control; details: 0.25 h; for INH: 1 µM; for inhibition at 1 µM: read-out: INH
T1 sequence (P27338 whole entry): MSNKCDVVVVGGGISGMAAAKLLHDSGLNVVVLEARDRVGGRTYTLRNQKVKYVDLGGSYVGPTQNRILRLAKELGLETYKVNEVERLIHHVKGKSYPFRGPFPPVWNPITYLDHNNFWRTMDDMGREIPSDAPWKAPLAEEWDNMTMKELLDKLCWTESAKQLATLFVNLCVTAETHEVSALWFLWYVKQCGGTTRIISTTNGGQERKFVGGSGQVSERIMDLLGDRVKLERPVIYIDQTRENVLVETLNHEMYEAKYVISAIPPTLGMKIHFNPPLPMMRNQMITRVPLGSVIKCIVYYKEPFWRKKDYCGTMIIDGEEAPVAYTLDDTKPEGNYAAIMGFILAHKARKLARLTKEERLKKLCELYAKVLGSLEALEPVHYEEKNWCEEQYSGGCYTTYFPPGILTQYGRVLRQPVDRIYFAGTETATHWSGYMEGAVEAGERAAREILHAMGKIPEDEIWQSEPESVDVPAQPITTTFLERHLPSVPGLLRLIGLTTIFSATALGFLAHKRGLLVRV

Homo sapiens = species on record: Homo sapiens; experiment: Selectivity index, ratio of IC50 for human recombinant MAO-A expressed in insect cells to IC50 for human recombinant MAO-B expressed in insect cells
[2] = biological target: T2, Amine oxidase [flavin-containing] A (Homo sapiens, UniProt P21397); experiment: Inhibition of human recombinant MAO-A expressed in insect cells using p-tyramine as substrate preincubated for 30 mins followed by substrate addition measured for 15 mins by resorufin dye-based fluorescence assay
T2 sequence (P21397 whole entry): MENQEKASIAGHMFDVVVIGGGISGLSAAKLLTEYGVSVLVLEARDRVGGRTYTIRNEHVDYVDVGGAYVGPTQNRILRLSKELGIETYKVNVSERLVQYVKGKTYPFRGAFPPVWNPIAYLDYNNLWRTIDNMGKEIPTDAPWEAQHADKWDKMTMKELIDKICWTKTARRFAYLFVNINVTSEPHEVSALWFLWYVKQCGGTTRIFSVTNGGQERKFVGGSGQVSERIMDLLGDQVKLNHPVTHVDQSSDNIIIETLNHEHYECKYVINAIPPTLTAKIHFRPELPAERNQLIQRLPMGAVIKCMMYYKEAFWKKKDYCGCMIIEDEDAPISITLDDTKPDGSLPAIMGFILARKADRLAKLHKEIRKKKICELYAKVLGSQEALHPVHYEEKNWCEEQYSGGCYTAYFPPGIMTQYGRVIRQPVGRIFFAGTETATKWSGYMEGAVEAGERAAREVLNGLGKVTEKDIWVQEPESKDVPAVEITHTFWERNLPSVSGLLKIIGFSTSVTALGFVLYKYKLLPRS

[3] = biological target: T1, Amine oxidase [flavin-containing] B; experiment: Inhibition of human recombinant MAO-B expressed in insect cells using p-tyramine as substrate preincubated for 30 mins followed by substrate addition measured for 15 mins by resorufin dye-based fluorescence assay; type: cell-based

INH [1] | inhibition at 1 µM [1] [%] | IC50 [2] [µM] | IC50 [3] [µM] | SMILES | Ratio IC50 (Homo sapiens)
Not Active | – | – | – | CC(C)=C1C(=O)Nc2ccc(OCc3ccc(F)cc3)cc21 | –
Not Active | – | – | – | CC1(C)C(=O)Nc2ccc(OCc3ccc(F)cc3)cc21 | –
– | 23.4 | > 500 | 34.3 | Cn1c(=O)[nH]c2cc(OCc3cccc(Cl)c3)ccc21 | > 14.6
Not Active | – | – | – | Cc1ccc(COc2ccc3c(c2)C(C(C)C)C(=O)N3)cc1 (configuration not stated) | –
– | 15.5 | – | – | COc1ccc(OCCOc2ccc3[nH]c(=O)n(C(C)C)c3c2)cc1 | –
– | 12.4 | > 500 | 17.2 | O=C1Cc2cc(OCc3ccc(Cl)c(Cl)c3)ccc2N1 | > 29.1
– | 5.36 | – | – | Cn1c(=O)[nH]c2ccc(OCc3cccc(F)c3)cc21 | –
– | 11.3 | – | – | CCn1c(=O)[nH]c2ccc(OCCCOc3ccccc3)cc21 | –
Not Active | – | – | – | CC1(C)C(=O)Nc2ccc(OCCOc3ccccc3)cc21 | –
– | 9.94 | – | – | Cn1c(=O)[nH]c2ccc(OCCOc3ccc(Cl)cc3)cc21 | –
– | 18.2 | – | – | CC(C)n1c(=O)[nH]c2ccc(OCCOc3ccc(Cl)cc3)cc21 | –
– | 7.24 | – | – | CCn1c(=O)[nH]c2ccc(OCCOc3ccc(Cl)cc3)cc21 | –
Not Active | – | – | – | Cc1ccc(COc2ccc3c(c2)C(C)(C)C(=O)N3)cc1 | –
– | 19.9 | – | – | Cn1c(=O)[nH]c2ccc(OCCc3ccc(Cl)cc3)cc21 | –
– | 12.5 | – | – | CCn1c(=O)[nH]c2ccc(OCc3cccc(C(F)(F)F)c3)cc21 | –
– | 93 | 311 | 0.046 | O=C1Nc2ccc(OCc3cccc(Cl)c3)cc2C1=O | 6760
– | 32.4 | > 500 | 7.68 | Cn1c(=O)[nH]c2ccc(OCc3ccc(Cl)c(Cl)c3)cc21 | > 65
– | 28.8 | > 500 | 132 | CC1(C)C(=O)Nc2ccc(OCc3ccc(Cl)c(Cl)c3)cc21 | > 3.78
Not Active | – | – | – | Cn1c(=O)[nH]c2cc(OCc3ccccc3)ccc21 | –
Not Active | – | – | – | Cn1c(=O)[nH]c2ccc(OCc3ccccc3)cc21 | –
– | 22.8 | > 500 | 184 | CCn1c(=O)[nH]c2ccc(OCc3ccc(C(F)(F)F)cc3)cc21 | > 2.71
Not Active | – | – | – | CC(C)=C1C(=O)Nc2ccc(OCCc3ccccc3)cc21 | –
– | 30.3 | > 500 | 190 | CCn1c(=O)[nH]c2ccc(OCCOc3cccc(F)c3)cc21 | > 2.62
Not Active | – | – | – | CC(C)=C1C(=O)Nc2ccc(OCc3cccc(C)c3)cc21 | –

INH [1] | inhibition at 1 µM [1] [%] | IC50 [2] [µM] | IC50 [3] [µM] | SMILES | Ratio IC50 (Homo sapiens)
Not Active | – | – | – | Cc1ccc(COc2ccc3c(c2)C(C)C(=O)N3)cc1 (racemic) | –
– | 14 | > 500 | 59.6 | Cn1c(=O)[nH]c2ccc(OCCCc3ccccc3)cc21 | > 8.39
– | 14.1 | > 500 | 66.7 | CC(C)c1ccc(OCCOc2ccc3[nH]c(=O)n(C(C)C)c3c2)cc1 | > 7.49
– | 4.56 | – | – | CCn1c(=O)[nH]c2ccc(OCCCc3ccccc3)cc21 | –
– | 21.1 | > 500 | 279 | CC1(C)C(=O)Nc2ccc(OCc3cccc(Cl)c3)cc21 | > 1.79
– | 95.7 | 117 | 0.003 | O=C1Nc2ccc(OCc3ccc(Cl)c(Cl)c3)cc2C1=O | 38900
Not Active | – | – | – | Cn1c(=O)[nH]c2ccc(OCCc3ccccc3)cc21 | –
– | 12.9 | – | – | CC(C)n1c(=O)[nH]c2ccc(OCCOc3cccc(F)c3)cc21 | –
– | 19 | > 500 | 278 | CCn1c(=O)[nH]c2ccc(OCCOc3ccc(C(C)C)cc3)cc21 | > 1.8
Not Active | – | – | – | CC1(C)C(=O)Nc2ccc(OCCc3ccccc3)cc21 | –
– | 92.5 | 235 | 0.073 | O=C1Nc2ccc(OCc3ccc(F)cc3)cc2C1=O | 3210
– | 8.29 | > 500 | 56.4 | Cn1c(=O)[nH]c2ccc(OCc3ccc(Cl)cc3)cc21 | > 8.87
– | 12.7 | > 500 | 397 | CC(C)C1C(=O)Nc2ccc(OCc3cccc(F)c3)cc21 (configuration not stated) | > 1.62
Not Active | – | – | – | Cn1c(=O)[nH]c2cc(OCCCc3ccccc3)ccc21 | –
Not Active | – | – | – | CC(C)=C1C(=O)Nc2ccc(OCc3cccc(F)c3)cc21 | –
Not Active | – | – | – | CC(C)=C1C(=O)Nc2ccc(OCCOc3ccccc3)cc21 | –
Not Active | – | – | – | Cn1c(=O)[nH]c2cc(OCCc3ccccc3)ccc21 | –
– | 68.7 | > 500 | 0.102 | O=C1Nc2ccc(OCCc3ccc(F)cc3)cc2C1=O | > 4900
– | 8.89 | – | – | Cn1c(=O)[nH]c2ccc(OCc3cccc(Cl)c3)cc21 | –
– | 13.7 | – | – | Cn1c(=O)[nH]c2ccc(OCCc3cccc(Cl)c3)cc21 | –
– | 19.6 | > 500 | 24.9 | O=C1Cc2cc(OCc3ccc(F)cc3)ccc2N1 | > 20.1
– | 18.1 | > 500 | 190 | O=C1Cc2cc(OCCc3ccc(F)cc3)ccc2N1 | > 2.63
Not Active | – | – | – | COc1ccc(OCCOc2ccc3c(c2)C(=C(C)C)C(=O)N3)cc1 | –
– | 13.9 | – | – | CCn1c(=O)[nH]c2ccc(OCCOc3ccc(OC)cc3)cc21 | –
